Active and inactive are the calls of the source. How the calls were made is not given here.
Target: N-formyl peptide receptor 2 (Homo sapiens) (UniProt P25090)
Experiment: FPRL1 antagonists blocking calcium signal, SAR follow-up, cell-based, calcium response, secondary assay (AID 1061)
Conditions: FPRL1-expressing cells, antagonist mode, at 100 µM, hits give high values

Chain of N-formyl peptide receptor 2 (Homo sapiens) (P25090 whole entry, looked up): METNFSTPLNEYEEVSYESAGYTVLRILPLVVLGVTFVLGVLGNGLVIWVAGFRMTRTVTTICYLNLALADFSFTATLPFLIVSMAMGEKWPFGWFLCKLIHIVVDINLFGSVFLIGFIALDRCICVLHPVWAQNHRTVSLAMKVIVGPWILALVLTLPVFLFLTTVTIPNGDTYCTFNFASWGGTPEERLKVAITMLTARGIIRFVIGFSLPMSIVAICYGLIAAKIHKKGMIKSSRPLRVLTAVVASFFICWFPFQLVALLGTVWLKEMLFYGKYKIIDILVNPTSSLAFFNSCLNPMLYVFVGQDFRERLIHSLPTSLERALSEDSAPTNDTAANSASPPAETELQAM

Row | SMILES | inhibition
1 | COc1ccc(-c2cc(C(F)(F)F)nc(N3CCN(Cc4ccccc4)CC3)n2)cc1OC | 48% (inactive)
2 | COc1ccc(CC(=O)Nc2cc(-c3cn4cccnc4n3)ccc2OC)cc1 | 75%

Further lines, results first:

Row | inhibition | SMILES
3 | 79% | COc1ccc(-c2cn3cccnc3n2)cc1NC(=O)C1CC1
4 | 36% (inactive) | CCC(=O)Nc1cc(-c2cn3cccnc3n2)ccc1OC
5 | 93% | COc1ccc(-c2cn3cccnc3n2)cc1NC(=O)C(C)C

Reference: PubChem BioAssay AID1061 (NMMLSC, 2008)
